Reference: PMC8069214, “Synthesis, Biological Evaluation, and Molecular Modeling of Aza-Crown Ethers” (Molecules, 2021)
Where two headings read alike, the source gives them in different places.

What was measured:
Format in all cases: cell-based
[1] = test system: human neutrophils; assay: Ca2+ mobilization assay, direct effect of compounds on [Ca2+]i; settings: Neutrophil; for Emax: % of the response induced by 5 nM fMLF, read-out: Efficacy (converted)
Source text: We screened 24 aza- and diaza-crown ethers with adamantyl, adamantylalkyl, aminomethylbenzoyl, and ε-aminocaproyl substituents for their Ca^2+ ionophore effects in human neutrophils. To monitor cytoplasmic Ca^2+ levels, we used the fluorescent Ca^2+ indicator Fluo-4, which is a dynamic single-wavelength fluorescent Ca^2+ indicator. Increases in fluorescence intensity (λex = 485 nm, λem = 538 nm) reflect the rise in cytoplasmic Ca^2+ concentrations ([Ca^2+]i; see Materials and Methods).
(§1) Changes in neutrophil intracellular Ca^2+ concentrations ([Ca^2+]i) were measured with a FlexStation 3 scanning fluorometer (Molecular Devices, Sunnyvale, CA, USA). Briefly, human neutrophils were suspended in HBSS^−, loaded with Fluo-4AM at a final concentration of 1.25 μg/mL, and incubated for 30 min in the dark at 37 °C. After dye loading, the cells were washed with HBSS^−, resuspended in HBSS^+, separated into aliquots, and loaded into the wells of flat-bottom, half-area well black microtiter plates (2 × 10^5 cells/well). To assess the direct effects of test compounds on Ca^2+ flux, the compounds were added to the wells (final concentration of DMSO was 1%), and changes in fluorescence were monitored (λex = 485 nm, λem = 538 nm) every 5 s for 240 s at room temperature after addition of the test compound. To evaluate inhibitory effects of the compounds on FPR1/FPR2-dependent Ca^2+ flux, the compounds were added to the wells (final concentration of DMSO was 1%) with cells (human neutrophils or FPR1/FPR2 HL60 cells). The samples were preincubated for 10 min, followed by addition of 5 nM fMLF (for human neutrophils or FPR1-HL60 cells) or 5 nM WKYMVM (for FPR2-HL60 cells). The maximum change in fluorescence, expressed in arbitrary units over baseline, was used to determine the agonist response. Responses were normalized to the response induced by 5 nM fMLF or 5 nM WKYMVM, which were assigned as 100%. Curve fitting (at least five or six points) and calculation of median effective concentration values (EC50 or IC50) were performed by nonlinear regression analysis of the dose–response curves generated using Prism 7 (GraphPad Software, Inc., San Diego, CA, USA). Efficacy was determined by comparing individual responses activated by the test compounds to that induced by a positive control (5 nM fMLF), which was assigned a value of 100%.

[2] = target: T1, FPR2 (Homo sapiens, UniProt P25090); assay: Inhibition of WKYMVM-induced [Ca2+]i flux in FPR2-HL60 cells; settings: 10 min preincubation, 5 nM WKYMVM; N.A. = no activity at < 50 µM; read-out: FPR1/FPR2 Agonist-Induced Δ[Ca^2+]i FPR2-HL60 IC50
T1 construct: expressed in transfected cells
T1 sequence (P25090 1-351): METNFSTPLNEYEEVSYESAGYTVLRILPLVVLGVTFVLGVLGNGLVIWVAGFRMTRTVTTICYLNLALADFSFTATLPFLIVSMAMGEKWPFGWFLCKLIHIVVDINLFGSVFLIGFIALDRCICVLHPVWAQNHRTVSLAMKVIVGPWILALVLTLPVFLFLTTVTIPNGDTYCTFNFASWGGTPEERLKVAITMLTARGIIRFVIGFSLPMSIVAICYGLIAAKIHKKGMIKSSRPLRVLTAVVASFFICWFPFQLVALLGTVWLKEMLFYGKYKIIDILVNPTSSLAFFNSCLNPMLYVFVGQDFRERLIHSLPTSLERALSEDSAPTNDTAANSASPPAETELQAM
Protocol: (§2) Since these compounds elevated neutrophil [Ca^2+]i, and cytosolic Ca^2+ flux is a key component of neutrophil activation, we evaluated if they could alter neutrophil activation by FPR1 or FPR2 agonists. Neutrophils and FPR-transfected HL60 cells were preincubated for 10 min with crown ether compounds, and [Ca^2+]i flux was stimulated with either an FPR1 agonist (fMLF for human neutrophils and FPR1-HL60 cells) or an FPR2 agonist (WKYMVM for FPR2-HL60 cells).
(§3) Human promyelocytic leukemia HL60 cells stably transfected with FPR1 (FPR1-HL60 cells) or FPR2 (FPR2-HL60 cells) (kind gifts from Dr. Marie-Josephe Rabiet, INSERM, Grenoble, France) were cultured in RPMI 1640 medium supplemented with 10% heat-inactivated fetal calf serum, 10 mM HEPES, 100 μg/mL streptomycin, 100 U/mL penicillin, and G418 (1 mg/mL). Although stable cell lines are cultured under G418 selection pressure, G418 may affect some assays, so it was removed in the last round of culture before assays were performed.
as §1

[3] = target: T2, FPR1 (Homo sapiens, UniProt P21462); assay: Inhibition of fMLF-induced [Ca2+]i flux in FPR1-HL60 cells; settings: 10 min preincubation, 5 nM fMLF; N.A. = no activity at < 50 µM; read-out: FPR1/FPR2 Agonist-Induced Δ[Ca^2+]i FPR1-HL60 IC50
T2 construct: expressed in transfected cells
T2 sequence (P21462 1-350): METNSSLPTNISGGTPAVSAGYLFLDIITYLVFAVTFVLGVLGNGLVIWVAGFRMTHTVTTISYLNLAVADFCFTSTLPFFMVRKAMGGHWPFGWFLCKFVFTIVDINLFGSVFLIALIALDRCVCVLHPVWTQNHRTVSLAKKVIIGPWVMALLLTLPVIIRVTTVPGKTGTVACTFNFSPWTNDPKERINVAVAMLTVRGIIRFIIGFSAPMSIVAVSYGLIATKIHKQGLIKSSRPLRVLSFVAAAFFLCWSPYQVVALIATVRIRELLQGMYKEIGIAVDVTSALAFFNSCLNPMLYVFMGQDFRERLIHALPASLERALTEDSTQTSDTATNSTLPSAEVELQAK
Protocol: as §2, §3, §1

[4] = test system: human neutrophils; assay: fMLF-induced neutrophil chemotaxis (ChemoTx chambers); settings: 1 h, 1 nM fMLF, 60 min migration
Protocol: Human neutrophils were suspended in HBSS^+ containing 2% (v/v) heat-inactivated fetal bovine serum (2 × 10^6 cells/mL), and effects of the compounds on fMLF-induced chemotaxis was analyzed in 96-well ChemoTx chemotaxis chambers (Neuroprobe, Gaithersburg, MD, USA). In brief, neutrophils were preincubated with the indicated concentrations of the test compounds or DMSO for 20 min at room temperature and added to the upper wells of the ChemoTx chemotaxis chambers. The lower wells were loaded with 30 µL of HBSS^+ containing 2% (v/v) fetal bovine serum and the indicated concentrations of test sample plus 1 nM fMLF, DMSO (negative control), or 1 nM fMLF as a positive control. Neutrophils were added to the upper wells and allowed to migrate through the 5.0-µm pore polycarbonate membrane filter for 60 min at 37 °C and 5% CO2. The number of migrated cells was determined by measuring ATP in lysates of transmigrated cells using a luminescence-based assay (CellTiter-Glo; Promega, Madison, WI, USA), and luminescence measurements were converted to absolute cell numbers by comparison of the values with standard curves obtained with known numbers of neutrophils. Curve fitting (at least eight to nine points) and calculation of median effective concentration values (IC50) were performed by nonlinear regression analysis of the dose-response curves generated using Prism 5.

[5] = Homo sapiens, elevation of [Ca2+]i, Fluo-4, N.A. = no activity was found at concentration < 50 µM, read-out: EC50, effect on [Ca^2+]i flux in human neutrophils
[6] = reciprocal of EC50 in human neutrophils, inactive compounds assigned zero, read-out: 1/[EC50] (converted)

Compound	Emax ([1]; Homo sapiens) [%]	EC50 [1, 5] [µM]	EC50 [1, 6] [µM]	IC50 [2] [µM]	IC50 [3] [µM]	IC50 [4] [µM]
O=C(N1CCOCCOCCN(C(=O)C23CC4CC(CC(C4)C2)C3)CCOCC1)C12CC3CC(CC(C3)C1)C2 [Compound 13, N,N’-bis[1-oxo-1-(1-adamantyl)methyl]-4,10-diaza-15-crown-5]	25 to 50	6.9 ± 2.1	6.9	32.6 ± 4.5	16.5 ± 3.2	5.8 ± 1.4
O=C(N1CCOCCOCCOCCN(C(=O)C23CC4CC(CC(C4)C2)C3)CCOCC1)C12CC3CC(CC(C3)C1)C2 [Compound 14, N,N’-bis[1-oxo-1-(1-adamantyl)methyl]-4,10-diaza-18-crown-6]	25 to 50	9.5 ± 2.7	9.5	8.3 ± 2.3	11.6 ± 2.1	6.1 ± 2.1
O=C(CC12CC3CC(CC(C3)C1)C2)N1CCOCCOCCN(C(=O)CC23CC4CC(CC(C4)C2)C3)CCOCC1 [Compound 15, N,N’-bis[2-(1-adamantyl)acetyl]-4,10-diaza-15-crown-5]	110	4.7 ± 1.5	4.7	7.2 ± 1.7	4.8 ± 0.9	5.7 ± 0.2
O=C(CC12CC3CC(CC(C3)C1)C2)N1CCOCCOCCN(C(=O)CC23CC4CC(CC(C4)C2)C3)CCOCCOCC1 [Compound 17, N,N’-bis[2-(1-adamantyl)acetyl]-4,13-diaza-18-crown-6]		15.9 ± 2.5	15.9	7.6 ± 1.9	3.7 ± 0.7	5.2 ± 1.7
